Experimental data from PubChem BioAssay (NCI).
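Values below derive from 48-hour exposures of cells grown in 96-well plates, with endpoints linearly interpolated between the two concentrations bracketing the appropriate inhibition level. TGI: total growth inhibition.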

Columns and labels:
Test in all cases: growth of human tumour cells (NCI), 48 h
PC-3 prostate = tested on: PC-3 prostate
UO-31 renal = tested on: UO-31 renal
OVCAR-4 ovarian = tested on: OVCAR-4 ovarian
SF-539 CNS = tested on: SF-539 CNS
LOX IMVI melanoma = tested on: LOX IMVI melanoma
CCRF-CEM leukemia = tested on: CCRF-CEM leukemia
TK-10 renal = tested on: TK-10 renal
OVCAR-3 ovarian = tested on: OVCAR-3 ovarian
HCT-15 colon = tested on: HCT-15 colon
MDA-MB-435 = tested on: MDA-MB-435
NCI-H23 lung = tested on: NCI-H23 lung
DU-145 prostate = tested on: DU-145 prostate
SNB-19 CNS = tested on: SNB-19 CNS
MDA-MB-231 breast = tested on: MDA-MB-231 breast
KM12 colon = tested on: KM12 colon
MOLT-4 leukemia = tested on: MOLT-4 leukemia
K-562 leukemia = tested on: K-562 leukemia
NCI-H522 lung = tested on: NCI-H522 lung
NCI-H226 lung = tested on: NCI-H226 lung
HT29 colon = tested on: HT29 colon
SF-268 CNS = tested on: SF-268 CNS
HOP-62 NSCLC = tested on: HOP-62 NSCLC
RXF 393 renal = tested on: RXF 393 renal
CAKI-1 renal = tested on: CAKI-1 renal
HL-60(TB) leukemia = tested on: HL-60(TB) leukemia
SNB-75 CNS = tested on: SNB-75 CNS
IGROV1 ovarian = tested on: IGROV1 ovarian
786-0 renal = tested on: 786-0 renal
HS 578T breast = tested on: HS 578T breast
SW-620 colon = tested on: SW-620 colon
SN12C renal = tested on: SN12C renal
MCF7 breast = tested on: MCF7 breast
SK-MEL-28 melanoma = tested on: SK-MEL-28 melanoma
SK-MEL-5 melanoma = tested on: SK-MEL-5 melanoma
T-47D breast = tested on: T-47D breast
HOP-92 NSCLC = tested on: HOP-92 NSCLC
M14 melanoma = tested on: M14 melanoma
A549 NSCLC = tested on: A549 NSCLC
MDA-N = tested on: MDA-N
SK-OV-3 ovarian = tested on: SK-OV-3 ovarian
MALME-3M melanoma = tested on: MALME-3M melanoma
RPMI-8226 leukemia = tested on: RPMI-8226 leukemia
UACC-257 melanoma = tested on: UACC-257 melanoma
COLO 205 colon = tested on: COLO 205 colon
OVCAR-8 ovarian = tested on: OVCAR-8 ovarian
NCI/ADR-RES ovarian = tested on: NCI/ADR-RES ovarian
U251 CNS = tested on: U251 CNS
A498 renal = tested on: A498 renal
SF-295 CNS = tested on: SF-295 CNS
ACHN renal = tested on: ACHN renal
HCT-116 colon = tested on: HCT-116 colon
SK-MEL-2 melanoma = tested on: SK-MEL-2 melanoma
OVCAR-5 ovarian = tested on: OVCAR-5 ovarian
EKVX NSCLC = tested on: EKVX NSCLC

O=C1NC(N2CCCCC2)=N/C1=C\c1ccccc1O
TGI (PC-3 prostate): > 100 µM
TGI (UO-31 renal): > 100 µM
TGI (OVCAR-4 ovarian): 91.4 µM
TGI (SF-539 CNS): > 100 µM
TGI (LOX IMVI melanoma): > 100 µM
TGI (CCRF-CEM leukemia): > 100 µM
TGI (TK-10 renal): > 100 µM
TGI (OVCAR-3 ovarian): > 100 µM
TGI (HCT-15 colon): > 100 µM
TGI (MDA-MB-435): > 100 µM
TGI (NCI-H23 lung): > 100 µM
TGI (DU-145 prostate): > 100 µM
TGI (SNB-19 CNS): > 100 µM
TGI (MDA-MB-231 breast): > 100 µM
TGI (KM12 colon): > 100 µM
TGI (MOLT-4 leukemia): > 100 µM
TGI (K-562 leukemia): > 100 µM
TGI (NCI-H522 lung): > 100 µM
TGI (NCI-H226 lung): > 100 µM
TGI (HT29 colon): > 100 µM
TGI (SF-268 CNS): > 100 µM
TGI (HOP-62 NSCLC): > 100 µM
TGI (RXF 393 renal): > 100 µM
TGI (CAKI-1 renal): > 100 µM
TGI (HL-60(TB) leukemia): > 100 µM
TGI (SNB-75 CNS): > 100 µM
TGI (IGROV1 ovarian): > 100 µM
TGI (786-0 renal): > 100 µM
TGI (HS 578T breast): > 100 µM
TGI (SW-620 colon): > 100 µM
TGI (SN12C renal): > 100 µM
TGI (MCF7 breast): > 100 µM
TGI (SK-MEL-28 melanoma): > 100 µM
TGI (SK-MEL-5 melanoma): > 100 µM
TGI (T-47D breast): > 100 µM
TGI (HOP-92 NSCLC): > 100 µM
TGI (M14 melanoma): > 100 µM
TGI (A549 NSCLC): > 100 µM
TGI (MDA-N): > 100 µM
TGI (SK-OV-3 ovarian): > 100 µM
TGI (MALME-3M melanoma): > 100 µM
TGI (RPMI-8226 leukemia): > 100 µM
TGI (UACC-257 melanoma): > 100 µM
TGI (COLO 205 colon): > 100 µM
TGI (OVCAR-8 ovarian): > 100 µM
TGI (NCI/ADR-RES ovarian): > 100 µM
TGI (U251 CNS): > 100 µM
TGI (A498 renal): > 100 µM
TGI (SF-295 CNS): > 100 µM
TGI (ACHN renal): > 100 µM
TGI (HCT-116 colon): > 100 µM
TGI (SK-MEL-2 melanoma): > 100 µM
TGI (OVCAR-5 ovarian): > 100 µM
TGI (EKVX NSCLC): > 100 µM
